Measured values reported in the NIST ThermoML archive (doi:10.1016/j.jct.2018.04.019).
“And” between values parts separate entries of the source, which are not always exact repeats. Equal values may be shown once.

Details: Liquid; for speed of sound: Frequency=5 MHz, Pulse-echo method; for mass density: Vibrating tube method

CCCCCCCCC [nonane]
Details | mass density | speed of sound
373.14 K, 360090 kPa | – | 2160.1 m/s
373.14 K, 389860 kPa | – | 2212.9 m/s
373.15 K, 1010 kPa | 654.52 kg/m3 | –
373.15 K, 5050 kPa | 659.99 kg/m3 | –
373.15 K, 10030 kPa | 666.13 kg/m3 | –
373.15 K, 15070 kPa | 671.78 kg/m3 | –
373.15 K, 20030 kPa | 677.04 kg/m3 | –
373.15 K, 25060 kPa | 681.94 kg/m3 | –
373.15 K, 30040 kPa | 686.51 kg/m3 | –
373.15 K, 35060 kPa | 690.83 kg/m3 | –
373.15 K, 40020 kPa | 694.95 kg/m3 | –
373.15 K, 45070 kPa | 698.87 kg/m3 | –
373.15 K, 50070 kPa | 702.65 kg/m3 | –
373.15 K, 55060 kPa | 706.23 kg/m3 | –
373.15 K, 60040 kPa | 709.66 kg/m3 | –
373.15 K, 65030 kPa | 712.95 kg/m3 | –
398.14 K, 1100 kPa | – | 835.44 m/s and 835.46 m/s
398.14 K, 30140 kPa | – | 1079.8 m/s
398.14 K, 60240 kPa | – | 1254.1 m/s
398.14 K, 90220 kPa | – | 1391.9 m/s
398.14 K, 120200 kPa | – | 1508.5 m/s
398.14 K, 150150 kPa | – | 1610.2 m/s
398.14 K, 180170 kPa | – | 1701.7 m/s
398.14 K, 210020 kPa | – | 1784.3 m/s
398.14 K, 240150 kPa | – | 1861.3 m/s
398.14 K, 270210 kPa | – | 1933.1 m/s
398.14 K, 299860 kPa | – | 1999.6 m/s
398.14 K, 330010 kPa | – | 2063.7 m/s
398.14 K, 360010 kPa | – | 2124 m/s
398.14 K, 389950 kPa | – | 2182.2 m/s
398.15 K, 1020 kPa | 633.06 kg/m3 | –
398.15 K, 5020 kPa | 639.53 kg/m3 | –
398.15 K, 5030 kPa | 639.58 kg/m3 | –
398.15 K, 10050 kPa | 646.89 kg/m3 | –
398.15 K, 15070 kPa | 653.53 kg/m3 | –
398.15 K, 20020 kPa | 659.49 kg/m3 | –
398.15 K, 25030 kPa | 665.05 kg/m3 | –
398.15 K, 30050 kPa | 670.22 kg/m3 | –
398.15 K, 35050 kPa | 675.1 kg/m3 | –
398.15 K, 40020 kPa | 679.63 kg/m3 | –
398.15 K, 45070 kPa | 683.97 kg/m3 | –
398.15 K, 50020 kPa | 688.07 kg/m3 | –
398.15 K, 55040 kPa | 692.01 kg/m3 | –
398.15 K, 60030 kPa | 695.72 kg/m3 | –
398.15 K, 65040 kPa | 699.37 kg/m3 | –
423.14 K, 1110 kPa | – | 747.67 m/s
423.14 K, 1120 kPa | – | 747.72 m/s
423.14 K, 29690 kPa | – | 1013.6 m/s
423.14 K, 60210 kPa | – | 1199.1 m/s
423.14 K, 90050 kPa | – | 1341 m/s
423.14 K, 120570 kPa | – | 1462.7 m/s
423.14 K, 150110 kPa | – | 1565.4 m/s
423.14 K, 180160 kPa | – | 1658.8 m/s
423.14 K, 210180 kPa | – | 1744 m/s
423.14 K, 239990 kPa | – | 1822.3 m/s
423.14 K, 270120 kPa | – | 1895.7 m/s
423.14 K, 299980 kPa | – | 1964.4 m/s
423.14 K, 330040 kPa | – | 2029.4 m/s
423.14 K, 360020 kPa | – | 2089.7 m/s
423.14 K, 389720 kPa | – | 2146.1 m/s
423.15 K, 1020 kPa | 610.45 kg/m3 | –
423.15 K, 5030 kPa | 618.47 kg/m3 and 618.42 kg/m3 | –
423.15 K, 10030 kPa | 627.15 kg/m3 | –
423.15 K, 15030 kPa | 634.86 kg/m3 | –
423.15 K, 20040 kPa | 641.8 kg/m3 | –
423.15 K, 25040 kPa | 648.1 kg/m3 | –
423.15 K, 30020 kPa | 653.92 kg/m3 | –
423.15 K, 35050 kPa | 659.35 kg/m3 | –
423.15 K, 40020 kPa | 664.4 kg/m3 | –
423.15 K, 45020 kPa | 669.15 kg/m3 | –
423.15 K, 50040 kPa | 673.7 kg/m3 | –
423.15 K, 55020 kPa | 677.97 kg/m3 | –
423.15 K, 60030 kPa | 682.03 kg/m3 | –
423.15 K, 65040 kPa | 685.95 kg/m3 | –
448.15 K, 1000 kPa | 586.37 kg/m3 | –
448.15 K, 1040 kPa | – | 660.9 m/s
448.15 K, 5020 kPa | 596.41 kg/m3 and 596.46 kg/m3 | –
448.15 K, 10040 kPa | 607.05 kg/m3 | –
448.15 K, 15010 kPa | 616.06 kg/m3 | –
448.15 K, 20010 kPa | 624 kg/m3 | –
448.15 K, 25040 kPa | 631.27 kg/m3 | –
448.15 K, 30030 kPa | 637.78 kg/m3 | –
448.15 K, 30440 kPa | – | 960.29 m/s
448.15 K, 35030 kPa | 643.8 kg/m3 | –
448.15 K, 40010 kPa | 649.38 kg/m3 | –
448.15 K, 45050 kPa | 654.67 kg/m3 | –
448.15 K, 50020 kPa | 659.58 kg/m3 | –
448.15 K, 55040 kPa | 664.24 kg/m3 | –
448.15 K, 60030 kPa | 668.62 kg/m3 | –
448.15 K, 60490 kPa | – | 1150.5 m/s
448.15 K, 65020 kPa | 672.85 kg/m3 | –
448.15 K, 90220 kPa | – | 1296 m/s
448.15 K, 120320 kPa | – | 1418.8 m/s
448.15 K, 150280 kPa | – | 1525 m/s
448.15 K, 180150 kPa | – | 1619.4 m/s
448.15 K, 209900 kPa | – | 1704.9 m/s
448.15 K, 239920 kPa | – | 1784.3 m/s
448.15 K, 270080 kPa | – | 1858.4 m/s
448.15 K, 299830 kPa | – | 1929.8 m/s
448.15 K, 330050 kPa | – | 1995.9 m/s
448.15 K, 359980 kPa | – | 2059.2 m/s
448.15 K, 390310 kPa | – | 2115.1 m/s
473.15 K, 1010 kPa | – | 574.55 m/s
473.15 K, 5010 kPa | 573.14 kg/m3 | –
473.15 K, 10040 kPa | 586.15 kg/m3 | –
473.15 K, 15040 kPa | 596.86 kg/m3 | –
473.15 K, 20020 kPa | 606.05 kg/m3 | –
473.15 K, 25050 kPa | 614.28 kg/m3 | –
473.15 K, 30020 kPa | 621.6 kg/m3 | –
473.15 K, 30430 kPa | – | 906.04 m/s
473.15 K, 35030 kPa | 628.3 kg/m3 | –
473.15 K, 40050 kPa | 634.51 kg/m3 | –
473.15 K, 45050 kPa | 640.25 kg/m3 | –
473.15 K, 50040 kPa | 645.6 kg/m3 | –
473.15 K, 55020 kPa | 650.62 kg/m3 | –
473.15 K, 60010 kPa | 655.39 kg/m3 | –
473.15 K, 60390 kPa | – | 1104.6 m/s
473.15 K, 65010 kPa | 659.92 kg/m3 | –
473.15 K, 90200 kPa | – | 1255.4 m/s
473.15 K, 120100 kPa | – | 1381 m/s
473.15 K, 150230 kPa | – | 1490.6 m/s
473.15 K, 180260 kPa | – | 1587.6 m/s
473.15 K, 210230 kPa | – | 1675.8 m/s
473.15 K, 240070 kPa | – | 1755.4 m/s
473.15 K, 270130 kPa | – | 1830.8 m/s
473.15 K, 300080 kPa | – | 1901.9 m/s
473.15 K, 330030 kPa | – | 1964.8 m/s
473.15 K, 360070 kPa | – | 2026.3 m/s
473.15 K, 390060 kPa | – | 2084 m/s
